Results on 17 compounds are retold here after patent US4529603A, “Pharmaceutical composition and method for treatment of psychomotor excitement” (priority 1983, dated 1985).

Where a name gives a salt, the structure may show the parent alone.

Series [1] relates to aromatic L-amino acid decarboxylase. To be noted: decarboxylation by aromatic L-amino acid decarboxylase; cited from earlier work.
In series [2] the test system is ptosis induced by tetrabenazine. In words: Ptosis induced by tetrabenazine. It counts as in vivo. To be noted: for Ptosis score: tetrabenazine 40 mg/kg i.p., 3 hrs, Mean ± S.E., N 6; for effects of erythro-DOPS on combination use of a peripheral decarboxylase inhibitor: combination with erythro-DOPS. Here is the method:
L-threo-DOPS (100 mg/kg and 200 mg/kg) was intraperitoneally injected at the same time with the intraperitoneal injection of tetrabenazine (40 mg/kg) and at 1 hr. after the intraperitoneal injection of benserazide or carbidopa.
The score of ptosis was measured by the method of Fukushima et al. (Arch. Int. Pharmacodyn. Therp. 229 163 1977) at 3 hrs. after the injection of tetrabenazine.

The conditions of series [3]: animal experiments; U.S. Pat. No. 3,920,728; cited from earlier work.
The test system of series [4] is Amine content in the brain. Briefly: Amine content in the brain of mice administered with erythro-DOPS. In kind it is in vivo. As to conditions: for Dopamine content in the brain / Serotonin content in the brain / Noradrenaline (NA) content in the brain: mean of three mice ±SD. As for the experimental part: PIH (50 mg/kg) was previously administered to mice and after lapse of 17 hours, physiological saline or DL-erythro-DOPS (200 mg/kg) was intraperitoneally injected to the mice.
Amine content in the brain was measured after a lapse of 30 minutes from the injection.
The content was expressed as ng/g wet weight and shown as mean value of the three mice±SD.

The test system of series [5] is quantity of spontaneous movement of mice. In words: Spontaneous movement of mice pretreated with PIH (Animex). In kind it is in vivo. As for the experimental part:
Three mice as one group were put in a movement measuring box of Animex and quantity of spontaneous movements of the mice were measured at given intervals of time.
Thereafter, they gradually became calm and crouched after about 30-40 minutes resulting in much decrease in their spontaneous moving quantity. β-phenylisopropylhydrazine hydrochloride (Catron, trade name) (referred to as "PIH" hereinafter) which is a monoamine oxidase inhibitor (MAOI) was intraperitoneally administered to the mice in an amount of 50 mg/kg.
Separately, 200 mg/kg of DL-erythro-DOPS was intraperitoneally injected to the mice and the effects thereof were examined.
In FIG. 1 the axis of ordinates indicates the quantity of movement (counts/5 min.) and the axis of abscissae indicates the time (minute) from the beginning of measurement of the quantity of spontaneous movement which was after 30 minutes from administration of DL-erythro-DOPS.

A short description of series [6]: Acute oral toxicity (LD50). To be noted: mouse, in vivo.
For series [7] the following is noted: continuously in blood; cited from earlier work.
The conditions of series [8]: major tranquilizers; cited from earlier work.
The test system of another series is mania. To be noted: cited from earlier work.
The next series deals with orthostatic hypotension. As to conditions: U.S. Pat. No. 4,330,558; cited from earlier work.
Series [9] deals with freezing phenomenon in parkinson's disease. To be noted: UK Patent Publication No. 2106388; cited from earlier work.
In the next series the test system is harmaline induced tremor. To be noted: Japanese Patent Publication No. 125630/1977; cited from earlier work.
Series [10] has as its system quantity of spontaneous movement of mice increased by administration of methamphetamine. Briefly: Spontaneous movement of mice with methamphetamine. It counts as in vivo. As for the experimental part:
The same experimental system of measuring spontaneous movement quantity of mice as used in Experimental Example 1 was employed in this Example.
In FIG. 2, the axis of ordinates indicates the quantity of spontaneous movement and the axis of abscissa indicates the time (minute) when the time at which the administration of methamphetamine (1.4 mg/kg) alone or methamphetamine with DL-erythro-DOPS (200 mg/kg) was carried out was taken as zero point.

The subject of series [11] is quantity of spontaneous movement of mice administered with tranylcypromine. Briefly: Spontaneous movement of mice administered with tranylcypromine. It counts as in vivo. As for the experimental part: The same experimental system of measuring the quantity of spontaneous movement of mice as used in Experimental Example 1 was used in this Example.
In FIG. 3, the axis of ordinates indicates the quantity of spontaneous movement and the axis of abscissae indicates the lapse of time (minute) and the arrows indicate the time when administration was conducted.

Series [12] concerns Amine content in the brain. Briefly: Amine content in the brain of PIH administered mice. In kind it is in vivo. To be noted: PIH 50 mg/kg i.p., 17 hours, mean of three mice ±SD. As for the experimental part: A physiological saline or PIH (50 mg/kg) was intraperitoneally injected to mice and content of amine in the brain was measured after 17 hours.
The measurement was substantially in accordance with the method of Ogasawara et al (J. Chromatography 180, 119). The content was expressed as ng/g wet weight and shown as mean value of the three mice ±SD.

Setting [13] is: DL-erythro-DOPS 200 mg/kg i.p. together with methamphetamine 1.4 mg/kg.
Setting [14] is: PIH 50 mg/kg 17 hours before + DL-erythro-DOPS 200 mg/kg i.p., 30 minutes.
[15] abbreviates: DL-erythro-DOPS given 180 minutes after tranylcypromine.
Where [16] appears, read: PIH 50 mg/kg + physiological saline, 30 minutes after injection.
The mark [17] stands for this setting: PIH 50 mg/kg i.p., 16 hours after administration.

As for `N[C@H](C(=O)O)[C@@H](O)c1ccc(O)c(O)c1` (racemic) [L-erythro-DOPS, L or DL-erythro-3-(3,4-dihydroxyphenyl)serine], the “conversion to noradrenaline in vivo” value in series [1] is recorded as “to d-NA”. Further, the results for the Ptosis score in series [2] (100 mg/kg i.p. alone) and in [2] (200 mg/kg i.p. alone) were 2.0 ± 0.4 and 2.3 ± 0.5, respectively.
Regarding `N[C@H](C(=O)O)[C@@H](O)c1ccc(O)c(O)c1` (relative stereo) [erythro-DOPS, erythro-3-(3,4-dihydroxyphenyl)serine], in [3], the “antihypertensive or antidepressive effect” value is on record as “has an antihypertensive or antidepressive effect”. In addition, the “change of contents of amines in the brain (NA, dopamine, serotonin)” value in [4] (Experimental Examples 4 and 5) was “only NA significantly increases”. Moreover, in series [5] (summary of Experimental Examples 1 to 3), the “suppression of psychomotor excitement” value was “suppresses psychomotor excitement”. For the same compound, in series [6], the Toxicity entry is given as “extremely low”. In series [6] (po), the LD50 (as a rule, the dose at which mortality reaches 50%) was not below 5000 mg/kg. Moreover, the “ptosis induced by tetrabenazine” value in series [2] (administration of erythro-DOPS) is on record as “enhanced”.
Regarding lithium, the “lithium concentration in blood at which lithium poisoning will occur” value in series [7] is on record as not below 2.0 mEq/l.
Turning to `COc1ccc2c(c1)N(C[C@H](C)CN(C)C)c1ccccc1S2` [levomepromazine], the tranquilizing effects entry in [8] is “strong tranquilizing effects”.
`O=C(CCCN1CCC(O)(c2ccc(Cl)cc2)CC1)c1ccc(F)cc1` [haloperidol]: in [8], the tranquilizing effects entry is listed as “strong tranquilizing effects”.
In the case of `O=C(O)O` [lithium carbonate], the “time before a noticeable effect” value in the series with mania (treatment with lithium carbonate) is 3 to 8 days.
With `C[C@@](Cc1ccc(O)c(O)c1)(NN)C(=O)O` [carbidopa], in series [2], the “effects of erythro-DOPS on combination use of a peripheral decarboxylase inhibitor” value is reported as “significantly enhanced”.
Take `CN(C)CCCN1c2ccccc2Sc2ccc(Cl)cc21` [Chloropromazine]: in series [8], the tranquilizing effects result is recorded as “strong tranquilizing effects”.
Take `N[C@H](C(=O)O)[C@H](O)c1ccc(O)c(O)c1` (relative stereo) [threo-DOPS]: the “treatment of orthostatic hypotension” value with orthostatic hypotension is “clinically effective”. The “antihypertensive or antidepressive effect” value in series [3] is recorded as “has an antihypertensive or antidepressive effect”. The “treatment of freezing phenomenon in parkinson's disease” value in series [9] is “clinically effective”. The “effect on harmaline induced tremor” value in the series with harmaline induced tremor was “inhibitory effect”.
`N[C@H](C(=O)O)[C@@H](O)c1ccc(O)c(O)c1` (relative stereo) [DL-erythro-DOPS, DL-erythro-3-(3,4-dihydroxyphenyl)serine]: in series [10] (setting [13]), the “action of methamphetamine to increase the quantity of spontaneous movement” value was “retrained” and the “increase of the quantity of movement” value was “not noticeable”. Also, in series [4] (setting [14]), the “Dopamine content in the brain” value is reported as 895 ± 52 ng/g wet weight and the “Serotonin content in the brain” value is listed as 821 ± 92 ng/g wet weight. The “Noradrenaline (NA) content in the brain” value in series [4] (PIH 50 mg/kg 17 hours before + DL-erythro-DOPS 200 mg/kg i.p., 30 minutes, *: P <0.005) was determined as 1476 ± 105 ng/g wet weight. Besides, in [5] (DL-erythro-DOPS 200 mg/kg i.p., mice pretreated with PIH (50 mg/kg)), the “quantity of spontaneous movement” value is listed as “conspicuous decrease in the quantity of spontaneous movement”. Further, in series [11] (setting [15]), the quantity of movement entry was “began to decrease” and the “time after which the quantity of movement began to decrease” value is reported as “about 20 minutes”. For the same compound, in [11] (DL-erythro-DOPS given 180 minutes after tranylcypromine, then returned to original increased state), the “duration of decrease in quantity of movement” value lay within 30 to 90 min.
For `N[C@H](C(=O)O)C(O)c1ccc(O)c(O)c1` (stereo partly drawn) [L-DOPS], the “conversion to noradrenaline in vivo” value in [1] was “converted to noradrenaline”.
Turning to `CN[C@@H](C)Cc1ccccc1` [methamphetamine], in series [10] (methamphetamine 1.4 mg/kg i.p.), the “quantity of spontaneous movement” value is given as “abruptly increased” and the “time to restoration to nearly the former state” value turned out to be 2 h. The “time after which quantity of spontaneous movement began to decrease” value in [10] (methamphetamine 1.4 mg/kg i.p., from the injection) was determined as 50 min.
`NC(=O)N1c2ccccc2C=Cc2ccccc21` [carbamazepine]: the antimanic effect entry in the series with mania (human, in vivo) is on record as “has an antimanic effect”.
On to `NC(CO)C(=O)NNCc1ccc(O)c(O)c1O` (stereo not drawn) [benserazide], for which the “effects of erythro-DOPS on combination use of a peripheral decarboxylase inhibitor” value in [2] is “significantly enhanced”.
On to `CC(Cc1ccccc1)NN` (stereo not drawn) [PIH, β-phenylisopropylhydrazine hydrochloride], for which, in series [4] (setting [16]), the “Dopamine content in the brain” value amounted to 941 ± 56 ng/g wet weight, the “Noradrenaline (NA) content in the brain” value turned out to be 832 ± 88 ng/g wet weight and the “Serotonin content in the brain” value was found to be 942 ± 133 ng/g wet weight. Also, in [5] (setting [17]), the “quantity of spontaneous movement” value is “tendencies of increase in the spontaneous movement quantity” and the “time required before the mice became calm” value is given as “increase in time required before the mice became calm”. Moreover, the “Dopamine content in the brain” value in series [12] (**: P <0.05) came to 1026 ± 122 ng/g wet weight. In addition, in series [12] (*: P <0.005), the “Noradrenaline (NA) content in the brain” value was 1085 ± 79 ng/g wet weight and the “Serotonin content in the brain” value stood at 1260 ± 39 ng/g wet weight.
As for `N[C@H](C(=O)O)[C@H](O)c1ccc(O)c(O)c1` [L-threo-DOPS], the “conversion to noradrenaline in vivo” value in series [1] was “converted to l-NA”.
Consider `N[C@@H]1C[C@H]1c1ccccc1` (relative stereo) [tranylcyromine], for which, in series [11] (50 mg/kg i.p.), the spontaneous movement result is listed as “gradually increased”. In addition, the “time to maximum spontaneous movement” value in series [11] (50 mg/kg i.p., after administration, then maintained) amounted to 120 min.
